# Test results published in patent EP0366451A2, “The use of oxidized polyamines, especially NN'-Bis-(3-propionaldehyde)-1-4-diaminobutane (sperminedialdehyde) as immunosuppressive agents” (ORTHO PHARMACEUTICAL CORPORATION, priority 1988, dated 1990).
# Entries after “also recorded” stand apart in the source; their conditions may differ.
# Legend:
# [1] = Preliminary in vitro alkylation studies
# splenic T cell = assay: Concanavalin A-stimulated splenic T cell proliferation ([3H]-thymidine incorporation); assay type: cell-based, Mouse
# Procedure: Splenic cells were treated with various concentrations of SDA or an analogue for 30 min. at 37°C. Cells were washed and cultured in the presence of Concanavalin A for 3 days. [³H] Thymidine 0.1µCi/well was added and cells were harvested after 18-24 hrs.
# Mouse spleen cells were cultured for 3 days in flat bottom microtiter relates at 10⁵ cells per well in the presence of […] of Con A. 3H-thymidine (0.1 microcurie/well) was added for the last 4-6 hours of the culture period. Cells were harvested as described above.
# For [³H]-thymidine incorporation, drug or vehicle treated bone marrow or spleen cells were plated in RPMI-1640, containing 10% fetal bovine serum, 10 µM β-mercaptoethanol, 25 mM HEPES and 2 mM glutamine. Con-A (4 µg/ml and […]) was used as mitogens for bone marrow and spleen cells. Three days later, [³H]-thymidine (0.2 µCi/well) was added and cells were harvested after 12-18 hrs. L1210/CPA and L1210/0 cells (0.1 - 1 x 10⁵ cells/well were plated in RPMI-1640 containing 10% horse serum. [³H]-thymidine was added after 24 hrs and cells were filtered on GF/B filter paper for scintillation counting.
# [2] = target: T1, S-Adenosylmethionine Decarboxylase (AdoMet DC) (Mus musculus, UniProt P0DMN7); assay: AdoMet DC inhibition in L1210 cell supernatants ([14C]CO2 release); assay type: biochemical, Murine; settings: for inhibition of AdoMet DC (in words): Fig. 9 and Figure 10
# T1 construct: endogenous in cells; host or cells: murine leukemic L1210 cells (supernatant)
# T1 sequence (P0DMN7 68-334 limits assumed): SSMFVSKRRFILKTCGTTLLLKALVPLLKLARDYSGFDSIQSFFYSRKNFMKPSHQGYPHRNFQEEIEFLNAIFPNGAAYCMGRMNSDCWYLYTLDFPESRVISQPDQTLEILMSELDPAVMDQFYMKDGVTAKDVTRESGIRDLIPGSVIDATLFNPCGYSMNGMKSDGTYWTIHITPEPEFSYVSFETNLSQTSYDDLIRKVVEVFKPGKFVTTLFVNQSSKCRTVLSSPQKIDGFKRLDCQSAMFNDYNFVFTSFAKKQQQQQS
# T1 sequence (P0DMN7 1-67 limits assumed): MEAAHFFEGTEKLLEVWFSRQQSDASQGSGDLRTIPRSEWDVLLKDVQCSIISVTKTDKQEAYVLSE
# Procedure: Murine leukemic L1210 cell supernatants were incubated with different concentrations of SDA or butyl dialdehyde, and AdoMet DC activity was estimated by monitoring the release of [¹⁴C] CO₂. Inhibition curves for both drugs were superimposable with IC₅₀ values of 0.12-0.13 x 10⁻³ M.
# cytosolic ALDH = assay: NAD-linked cytosolic ALDH assay, L1210/CPA cells; assay type: biochemical, Murine
# Procedure: (§1) Cultured murine leukemic cells and livers (excised from mice immediately after cervical dislocation) were homogenized in 3 volumes of ice-cold 1.15% KCl and 1 mM EDTA. The homogenate was centrifuged at 100,000 g for 45 min and the resulting supernatant was used to measure cytosolic ALDH activity. For particulate ALDH assay, the pellet (and homogenate for total ALDH) was resuspended in homogenizing buffer and treated with 0.25% Triton X-100 for 30 min at 4°C. The solubilized preparations were centrifuged at 48,000 g for 30 min and the supernatants were drawn off for ALDH determinations.
# (§2) ALDH activity was measured by monitoring the reduction of NAD or NADp for 5-6 min at […] at 37°C in DU70 spectrophotometer (Beckman). The assay mixture contained 50 mM potassium phosphate buffer, pH 7.4, 2.0 mM NAD (or NADP) and 1.0 mM EDTA. The reaction was started by adding the substrate (SDA or other aldehyde) to the prewarmed (5 min at 37°C) assay mixture containing enzyme preparation. Pyrazole (0.1 mM) was added particularly for liver enzyme, to inhibit alcohol dehydrogenase. The apparent Km and maximum velocity (Vmax) values were calculated using a Lineweaver-Burk plot based on the estimation of the slope by regression analysis. Enzyme activity was expressed as mU (nmoles/min) per mg of protein. Protein contents were determined by the Bradford method, using bovine serum albumin as the standard.
# [3] = system: NADP-linked cytosolic ALDH; assay: NADP-linked cytosolic ALDH assay, L1210/CPA cells; assay type: biochemical, Murine; settings: SDA as substrate; read-out: 50% inhibition at
# Procedure: as §1
# as §2, with “standard. […]” for “standard.”
# [4] = system: tumor cells and hemopoietic progenitor cells; assay: Cytotoxicity of ALDH inhibitors ex vivo; assay type: cell-based; settings: at concentrations much lower than needed for complete inhibition of ALDH
# Description: Both disulfiram and acrolein were very toxic to tumor cells and hemopoietic progenitor cells ex vivo at concentrations much lower than that needed for complete inhibition of ALDH. […] Therefore, in subsequent experiments, DEAB was chosen to study the survival of leukemic cells and myeloid progenitor cells after treatment with SDA.
# Ornithine decarboxylase = Ornithine decarboxylase (Mus musculus, UniProt P00860); assay: Ornithine decarboxylase inhibition; assay type: biochemical; settings: Figure 10
# Chain of Ornithine decarboxylase (P00860 whole entry): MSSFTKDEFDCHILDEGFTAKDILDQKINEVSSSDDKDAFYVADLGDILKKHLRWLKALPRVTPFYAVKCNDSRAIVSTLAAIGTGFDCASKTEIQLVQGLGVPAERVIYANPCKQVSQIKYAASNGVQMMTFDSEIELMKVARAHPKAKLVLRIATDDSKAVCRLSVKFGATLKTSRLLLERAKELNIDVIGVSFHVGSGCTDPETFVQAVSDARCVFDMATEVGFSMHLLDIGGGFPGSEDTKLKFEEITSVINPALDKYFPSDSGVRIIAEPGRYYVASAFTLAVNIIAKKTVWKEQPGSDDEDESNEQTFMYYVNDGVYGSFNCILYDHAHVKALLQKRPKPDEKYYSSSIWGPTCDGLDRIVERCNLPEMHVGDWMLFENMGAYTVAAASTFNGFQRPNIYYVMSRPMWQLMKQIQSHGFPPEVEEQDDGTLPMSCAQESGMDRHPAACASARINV
# Description: The figure illustrates the comparative profile of the inhibition of key regulatory enzymes of polyamine synthesis by SDA, its analogue, butyl dialdehyde (BDA), difluoromethyl orinithine (DFMO) and methyl glyoxal bis (guanylhydrazone) (MGBG).
# [5] = system: Cytosolic ALDH in mouse liver; assay: NAD-linked cytosolic ALDH assay, mouse liver; assay type: biochemical; settings: as substrate, mouse liver cytosol
# Procedure: as §1, §2
smiles,measurement,setting,value
CC(=O)CCNCCCCNCCC(C)=O [ANALOGUE # 3],alkylation,[1],nonspecific alkylating agents
Nc1ncnc2c1nc(Sc1cc3c(cc1Br)OCO3)n2CCc1ccccc1Cl [ANALOGUE # 4],alkylation,[1],nonspecific alkylating agents
"O=CCCCNCCCCNCCCC=O [ANALOGUE # 7, butyl dialdehyde]",potency in proliferation assays compared with SDA,splenic T cell; Fig. 8,less potent than SDA
same,fold less potent than SDA,splenic T cell; Figure 8,30 fold
same,inhibition of AdoMet DC (in words),[2],selectively inhibited adenosylmethionine decarboxylase
same,IC50,"[2]; Figure 9, inhibition curves superimposable, read-out: IC₅₀ values",120 to 130 µM
C=CC=O [Acrolein],IC50,"cytosolic ALDH; SDA (1.0 mM) as substrate, pretreated with inhibitor 5 min at 37°C, read-out: Inhibition (IC₅₀)",2.5 ± 0.63 µM
same,IC50,[3],50 to 100 µM
same,toxicity to tumor cells and hemopoietic progenitor cells ex vivo,[4],very toxic
"NCCCC(N)(C(=O)O)C(F)F (stereo not drawn) [DFMO, difluoromethyl orinithine, reference compound]",inhibition of ODC (in words),Ornithine decarboxylase,inhibited ODC with high potency
same,inhibition of AdoMet DC (in words),[2],compensatory increase in AdoMetDC
CCN(CC)C(=S)SSC(=S)N(CC)CC [Disulfiram],toxicity to tumor cells and hemopoietic progenitor cells ex vivo,[4],very toxic
"CC(C=NNC(=N)N)=NNC(=N)N [MGBG, methyl glyoxal bis (guanylhydrazone), reference compound]",inhibition of AdoMet DC (in words),[2],inhibited AdoMetDC; also recorded: selectively reduced AdoMet IC activity
CCC=O [Propionaldehyde],Km,"cytosolic ALDH; as substrate, L1210/CPA cytosol, NAD, ± SEM, 3-4 experiments",26.5 ± 4.9 µM
same,Specific (activity of ALDH),"cytosolic ALDH; as substrate, L1210/CPA cytosol, propionaldehyde 1.0 mM",10.5 ± 3.2 mU/mg Protein
same,Km,"[5]; NAD, ± SEM, 3-4 experiments",14 ± 2.8 µM
same,Specific (activity of ALDH),[5]; propionaldehyde 1.0 mM,22.5 ± 3.9 mU/mg Protein
c1cn[nH]c1 [Pyrazole],effect on L1210/CPA cytosolic enzyme,"cytosolic ALDH; SDA as the substrate, data not shown",had no effect
